Experimental data: patent US6153587A, “Conformationally constrained LH-RH analogues, their uses and pharmaceutical compositions containing them” (Laboratoire THERAMEX, priority 1996, dated 2000)
Several values for one entry are separate records, joined by “and”; a condition that tells them apart may be missing. Equal entries are not always repeated. Where two headings read alike, the source gives them in different places. Where a SMILES comes first, the peptide text is derived from it. [ ]: non-standard residue; d: D form. The star is where a group is joined. dPhe(4-Cl) = N[C@H](Cc1ccc(Cl)cc1)C(=O)O; d2Nal = N[C@H](Cc1ccc2ccccc2c1)C(=O)O; Lys(iPr) = CC(C)NCCCC[C@H](N)C(=O)O; d3Pal = N[C@H](Cc1cccnc1)C(=O)O; Nicotinoyl = O=C(c1cccnc1)*

How the values were obtained:
LH-RH receptors [1] = target: T1, LH-RH receptors (Rattus norvegicus, UniProt P30969); assay: Total plasma testosterone in male Sprague-Dawley rats after subcutaneous injection; format: in vivo; conditions: 30 nanograms/kg subcutaneous; for Total testosterone: plasma at two hours, male Sprague-Dawley rats
T1 construct: from tissue; host or cells: rat pituitary membrane fraction (female Sprague Dawley)
T1 sequence (P30969 1-327): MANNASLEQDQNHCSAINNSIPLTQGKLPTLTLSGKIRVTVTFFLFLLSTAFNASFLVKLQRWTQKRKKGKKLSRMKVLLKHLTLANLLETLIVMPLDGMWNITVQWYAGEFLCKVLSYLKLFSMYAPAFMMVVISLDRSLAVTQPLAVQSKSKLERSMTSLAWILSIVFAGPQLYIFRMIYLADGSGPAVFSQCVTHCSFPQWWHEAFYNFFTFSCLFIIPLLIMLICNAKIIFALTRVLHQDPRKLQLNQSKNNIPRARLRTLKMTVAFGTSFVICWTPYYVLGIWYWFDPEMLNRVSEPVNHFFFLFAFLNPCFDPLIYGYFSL
Procedure: (§1) The peptides according to the general formula (IIa) exert an agonist activity upon the LH-RH receptors in vivo, resulting in the induction of ovulation in the female and in the stimulation of testosterone secretion in the male following acute subcutaneous administration.
Adult male Sprague-Dawley rats are treated by a subcutaneous injection of LH-RH agonists at the same dose of 30 nanograms/kg dissolved in PBS. Two hours later, blood samples are drawn for total plasma testosterone measurement by direct radioimmunoassay (Immunotech). At this dose, LH-RH itself is not active standard LH-RH agonists and selected examples according to formula (Ila) are compared in Table 3 below: […]

LH-RH receptors [2] = target: T1, LH-RH receptors; assay: Induction of ovulation in pentobarbital-blocked female Wistar rats; format: in vivo; conditions: subcutaneous
Procedure: as §1
Adult female Wistar rats are first monitored for normal estrous cyclicity by daily vaginal smears. After at least 2 regular 4-day cycles, they all receive an intraperitoneal injection of 50 mg/kg of sodium pentobarbital around 2:00 PM on the day of proestrus, which blocks the spontaneous ovulation in the negative control animals receiving in addition only the subcutaneous vehicle (PBS: phosphate buffered saline, 0.05 M, pH 7.4 containing 0.1% bovine serum albumin). At the same time, test animals are injected subcutaneously with LH-RH, standard LH-RH agonists or examples according to the formula (Ha), at various doses in solution in the vehicle described above. The following morning, the oviducts are excised and carefully dissected to search for ovocytes. None are found in the negative pentobarbital-blocked animals.
If effective, LH-RH agonists induce ovulation during the night between proestrus and estrus. The percentage of ovulating female rats, defined by the presence of at least one ovocyte in one of the two oviducts, is plotted as a function of the injected dose.

LH-RH receptors [3] = target: T1, LH-RH receptors; assay: Inhibition of ovulation in female Wistar rats; format: in vivo
Procedure: The peptides according to the general formula (IIb) exert an antagonist activity upon the LH-RH receptors in vivo, resulting in the inhibition of ovulation in the female.
Adult female Wistar rats are first monitored for normal estrous cyclicity by daily vaginal smears. After at least 2 regular 4-day cycles, they received by subcutaneous injection either the vehicle alone (0.5 ml of a mixture of propylene-glycol and water: 20/80 vol/vol), or the LH-RH antagonist according to the formula (IIb) dissolved in this vehicle, around 2:00 PM on the day of proestrus.
If effective, LH-RH antagonists totally block ovulation. […] The 50% inhibitory dose of antide is slightly lower than 1 μg/rat.

LH-RH receptors [4] = target: T1, LH-RH receptors; assay: Affinity for LH-RH receptors: [125I]-buserelin binding to rat pituitary membranes; conditions: for Ki: 2 hours at 4° C., Ki from IC50 by Cheng-Prusoff
Procedure: This affinity has been determined according to the following method:
Pituitaries from female Sprague Dawley rats were removed and homogenized with a Potter homogenizer in a 25 mM HEPES buffer (pH 7.4) containing 0.32 M sucrose, 100 μg/l PMSF (phenylmethylsulfonylfluoride), 5.6 U/l aprotinin and 10,000 U/l bacitracin. The homogenates were centrifuged at 700 g for 10 minutes and the supernatants were further centrifuged at 12,500 g for 30 minutes. The pellets were homogenized and centrifuged as described above, in the same buffer but without sucrose.
All homogenization, centrifugation and subsequent incubation steps were carried out at 4° C.
The assay was terminated by filtration under suction (Brandel 96-well harvester) through Whatman GF/B glass fiber filters. […] Each compound was tested in at least 4 experiments.
Specific binding data were analysed according to Scatchard's method.
For each test compound, the inhibitory constant (Ki) was calculated from its IC50 according to the Cheng and Prussofs equation: Ki=IC50 /(1+[radioligand]/Kd). Ki was then transformed into pKi (=-log Ki) for final expression of affinity scales.

[5] = 20 to 70 μM [125I]-buserelin, read-out: pKi (affinity for LH-RH receptors) (converted)

Structure (SMILES) | Total testosterone (LH-RH receptors [1]) [ng/mL] | ED50 (dose producing 50% of ovulation) (LH-RH receptors [2]) [nanograms/rat] | Ki (LH-RH receptors [4]; [5]) | IC50 range in words (LH-RH receptors [4]; [125I]-buserelin) | also measured
CCNC(=O)[C@@H]1CCCN1C(=O)[C@H](CCCNC(=N)N)NC(=O)[C@H](CC(C)C)NC(=O)[C@@H](CC(C)C)NC(=O)[C@H](Cc1ccc(O)cc1)NC(=O)[C@H](CO)NC(=O)[C@H](Cc1c[nH]c2ccccc12)NC(=O)[C@H](Cc1c[nH]cn1)NC(=O)[C@@H]1CCC(=O)N1 [Leuprorelin] | 11.9 ± 1.5 | 1.9 | – | – | –
CC(=O)N[C@H](Cc1ccc2ccccc2c1)C(=O)N[C@H](Cc1ccc(Cl)cc1)C(=O)N[C@H](Cc1cccnc1)C(=O)N[C@@H](CO)C(=O)N[C@@H](CCCCNC(=O)c1cccnc1)C(=O)N[C@H](CCCCNC(=O)c1cccnc1)C(=O)N[C@@H](CC(C)C)C(=O)N[C@@H](CCCCNC(C)C)C(=O)N1CCC[C@H]1C(=O)N[C@H](C)C(N)=O [Antide] (Ac-[d2Nal][dPhe(4-Cl)][d3Pal]SK(Nicotinoyl)[dK](Nicotinoyl)L[Lys(iPr)]P[dA]-NH2; N-terminus and C-terminus assumed) | – | – | 0.603 nM | subnanomolar range | Number of ovulating females/total number of treated females (LH-RH receptors [3]; dose 0.5 μg/rat subcutaneous): 4/5; Number of ovulating females/total number of treated females (LH-RH receptors [3]; dose 1 μg/rat subcutaneous): 5/16; Number of ovulating females/total number of treated females (LH-RH receptors [3]; dose 2.5 μg/rat subcutaneous): 2/6; Number of ovulating females/total number of treated females (LH-RH receptors [3]; dose 5 μg/rat subcutaneous): 0/11; Number of ovulating females/total number of treated females (LH-RH receptors [3]; dose 10 μg/rat subcutaneous): 0/8; 50% inhibitory dose (LH-RH receptors [3]; inhibition of ovulation, subcutaneous): lower than 1 μg/rat
CCNC(=O)[C@@H]1CCCN1C(=O)[C@H](CCCN=C(N)N)NC(=O)[C@H](CC(C)C)NC(=O)[C@@H](Cc1c[nH]c2ccccc12)NC(=O)[C@H](Cc1ccc(O)cc1)NC(=O)[C@H](CO)NC(=O)[C@H](Cc1c[nH]c2ccccc12)NC(=O)[C@H](Cc1cnc[nH]1)NC(=O)[C@@H]1CCC(=O)N1 [Deslorelin] | – | 4.8 | < 1 nM and 0.126 nM | subnanomolar range | –
CCNC(=O)[C@@H]1CCCN1C(=O)[C@H](CCCNC(=N)N)NC(=O)[C@H](CC(C)C)NC(=O)[C@@H](Cc1cn(Cc2ccccc2)cn1)NC(=O)[C@H](Cc1ccc(O)cc1)NC(=O)[C@H](CO)NC(=O)[C@H](Cc1c[nH]c2ccccc12)NC(=O)[C@H](Cc1cnc[nH]1)NC(=O)[C@@H]1CCC(=O)N1 [Histrelin] | 12.7 ± 1.9 | – | < 1 nM and 0.105 nM | subnanomolar range | –
CCNC(=O)[C@@H]1CCCN1C(=O)[C@H](CCCNC(=N)N)NC(=O)[C@H](CC(C)C)NC(=O)[C@@H](COC(C)(C)C)NC(=O)[C@H](Cc1ccc(O)cc1)NC(=O)[C@H](CO)NC(=O)[C@H](Cc1c[nH]c2ccccc12)NC(=O)[C@H](Cc1cnc[nH]1)NC(=O)[C@@H]1CCC(=O)N1 [Buserelin] | 15.4 ± 0.71 | – | – | subnanomolar range | Ki (LH-RH receptors [4]; pKi (affinity for LH-RH receptors), [125I]-buserelin): < 1 nM and 0.427 nM
CC(C)C[C@H](NC(=O)CNC(=O)[C@H](Cc1ccc(O)cc1)NC(=O)[C@H](CO)NC(=O)[C@H](Cc1c[nH]c2ccccc12)NC(=O)[C@H](Cc1c[nH]cn1)NC(=O)[C@@H]1CCC(=O)N1)C(=O)N[C@@H](CCCNC(=N)N)C(=O)N1CCC[C@H]1C(=O)NCC(N)=O [LH-RH] | – | 15 | – | – | activity on testosterone secretion, in words (LH-RH receptors [1]): not active
CCNC(=O)[C@@H]1CCCN1C(=O)[C@H](CCCNC(=N)N)NC(=O)[C@H](CCC(C)C)N1CC[C@@]2(CCCN2C(=O)[C@H](Cc2ccc(O)cc2)NC(=O)[C@H](CO)NC(=O)[C@H](Cc2c[nH]c3ccccc23)NC(=O)[C@H](Cc2c[nH]cn2)NC(=O)[C@@H]2CCC(=O)N2)C1=O [Example 15, pGlu-His-Trp-Ser-Tyr-SPL-Hol-Arg-Pro-NEt] | – | – | 2.29 nM | – | –
CC(=O)N[C@H](Cc1ccc2ccccc2c1)C(=O)N[C@H](Cc1ccc(Cl)cc1)C(=O)N[C@H](Cc1cccnc1)C(=O)N[C@@H](CO)C(=O)N[C@@H](Cc1ccc(O)cc1)C(=O)N1CCC[C@@]12CCN([C@@H](CC(C)(C)C)C(=O)N[C@@H](CCCCNC(C)C)C(=O)N1CCC[C@H]1C(=O)N[C@H](C)C(N)=O)C2=O [Example 28, AcDNal-DpCtPhe-DPal-Ser-Tyr-SPL-Npg-IprLys-Pro-DAlaNH2] | – | – | 0.309 nM | – | –
